# In patent US8658620B2, “Pharmaceutical composition, use of 2-iminopyrrolidine derivative for production of pharmaceutical composition, and kit for treatment or amelioration of heart diseases” (Eisai R&D Management Co., Ltd., priority 2008, dated 2014):
# Structures can show the parent of a compound that is named as a salt.
# Tested on: guinea pig photosensitization-induced thrombus model
# Assay: guinea pig photosensitization-induced thrombus model (rose bengal / green light, femoral artery blood flow time)
# Assay type: in vivo
# Settings: male Hartley guinea pigs, oral, about 115-120 min after administration, vehicle control 6.72 minutes
# Method: At least one compound selected from the group consisting of the formulas (I) to (VII) or a pharmacologically acceptable salt thereof and at least one other compound (B) selected from group B are administered orally, single or in mixture, to male Hartley guinea pigs. As a vehicle, 0.5% methylcellulose solution or an aqueous solution containing dimethylsulfoxide and Tween 20 is used. (These compounds may be administered repeatedly.)
# At a specific time after the oral administration, guinea pigs are anesthetized by intraperitoneal administration of sodium pentobarbital. Under anesthesia, the cervical vein is exposed and a polyethylene tube is cannulated thereinto for administering rose bengal. The femoral artery is exposed and fitted with a probe for blood flow measurement. A site upstream of the probe is irradiated with green light (wavelength 540 nm, 500,000 lux). […] Time to complete cessation of blood flow is measured.
# A hydrobromide of a compound represented by the formula (I) (hereinafter, referred to as “the compound of Example 1”) and aspirin were dissolved with DMSO to give concentrations of 200 mg/mL and 1000 mg/mL, respectively. […] Blood flow time from the beginning of rose bengal administration to the complete cessation of blood flow was measured to evaluate antithrombotic effects.
SMILES,blood flow time from the beginning of rose bengal administration to the complete cessation of blood flow (compound of Example 1 alone 30 mg/kg),blood flow time from the beginning of rose bengal administration to the complete cessation of blood flow (aspirin alone 100 mg/kg)
"CCOc1cc2c(c(F)c1OCC)C(=N)N(CC(=O)c1cc(N3CCOCC3)c(OC)c(C(C)(C)C)c1)C2 [Example 1, 1-(3-tert-Butyl-4-methoxy-5-morpholino-phenyl)-2-(5,6-diethoxy-7-fluoro-1-imino-1,3-dihydro-isoindol-2-yl)-ethanone; hydrobromide]",10.77 min,–
CC(=O)Oc1ccccc1C(=O)O [aspirin],–,11.30 min
